Values quoted from earlier work as cited in patent EP3463364B1, “PYRAZINE DERIVATIVES FOR USE IN THE TREATMENT OF DISEASES ASSOCIATED WITH CELL CYCLE DYSREGULATION” (University of Patras, priority 2016, dated 2017).

Biological target: T1, Geminin-Cdtl interaction (Homo sapiens, UniProt Q9H211)
T1 sequence (Q9H211 1-546): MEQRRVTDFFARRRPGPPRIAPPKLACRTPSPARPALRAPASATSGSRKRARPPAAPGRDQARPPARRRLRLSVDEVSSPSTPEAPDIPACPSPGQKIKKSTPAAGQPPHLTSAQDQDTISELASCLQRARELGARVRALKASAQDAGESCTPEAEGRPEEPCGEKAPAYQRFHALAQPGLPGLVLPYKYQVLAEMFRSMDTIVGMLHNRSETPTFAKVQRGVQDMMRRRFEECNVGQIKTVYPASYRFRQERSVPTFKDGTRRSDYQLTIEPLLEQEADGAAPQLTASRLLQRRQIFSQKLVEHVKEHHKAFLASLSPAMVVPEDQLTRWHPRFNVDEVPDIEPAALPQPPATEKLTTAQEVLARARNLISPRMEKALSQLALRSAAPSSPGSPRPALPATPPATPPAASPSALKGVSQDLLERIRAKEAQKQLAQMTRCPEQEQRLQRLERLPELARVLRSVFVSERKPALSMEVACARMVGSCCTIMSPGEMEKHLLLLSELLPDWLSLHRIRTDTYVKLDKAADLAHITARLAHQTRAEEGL
Conditions: in vitro, through binding to the Cdtl licensing factor; literature; cited from earlier work

Compound | inhibition of the Geminin-Cdtl interaction
COC1=C(OC)C(=O)C(C/C=C(\C)CC/C=C(\C)CC/C=C(\C)CC/C=C(\C)CC/C=C(\C)CC/C=C(\C)CC/C=C(\C)CC/C=C(\C)CC/C=C(\C)CCC=C(C)C)=C(C)C1=O [coenzyme Q10] | inhibit the interaction of the two proteins in vitro
CCCCCCCC/C=C\CCCCCCCC(=O)O [oleic acid (C18:1), oleic acid] | inhibit the interaction of the two proteins in vitro
